Legend:
mouse SGLT-2 = molecular target: T1, mouse SGLT-2 (Mus musculus, UniProt Q923I7); test: Methyl-α-D-[U-14C]glucopyranoside uptake assay for SGLT-2 in CHO-K1 cells; format: cell-based; conditions: CHO-K1 cells expressing mSGLT-2, read-out: % inhibition of Methyl-α-D-[U-^14C] Glucopyranoside uptake (CHO-K1 cells) mediated by SGLT-2; for inhibition at 0.001 µM: 1 nM; for inhibition at 0.01 µM: 10 nM; for inhibition at 0.1 µM: 100 nM
T1 construct: Full-length mouse SGLT-2 cDNA was amplified from C57BL/6J mouse kidneys and introduced in the pcDNA3.1(+) expression vector; expressed in transfected cells; host or cells: CHO-K1 cells (American Type Culture Collection), stably transfected, G418-selected
T1 sequence (Q923I7 1-670): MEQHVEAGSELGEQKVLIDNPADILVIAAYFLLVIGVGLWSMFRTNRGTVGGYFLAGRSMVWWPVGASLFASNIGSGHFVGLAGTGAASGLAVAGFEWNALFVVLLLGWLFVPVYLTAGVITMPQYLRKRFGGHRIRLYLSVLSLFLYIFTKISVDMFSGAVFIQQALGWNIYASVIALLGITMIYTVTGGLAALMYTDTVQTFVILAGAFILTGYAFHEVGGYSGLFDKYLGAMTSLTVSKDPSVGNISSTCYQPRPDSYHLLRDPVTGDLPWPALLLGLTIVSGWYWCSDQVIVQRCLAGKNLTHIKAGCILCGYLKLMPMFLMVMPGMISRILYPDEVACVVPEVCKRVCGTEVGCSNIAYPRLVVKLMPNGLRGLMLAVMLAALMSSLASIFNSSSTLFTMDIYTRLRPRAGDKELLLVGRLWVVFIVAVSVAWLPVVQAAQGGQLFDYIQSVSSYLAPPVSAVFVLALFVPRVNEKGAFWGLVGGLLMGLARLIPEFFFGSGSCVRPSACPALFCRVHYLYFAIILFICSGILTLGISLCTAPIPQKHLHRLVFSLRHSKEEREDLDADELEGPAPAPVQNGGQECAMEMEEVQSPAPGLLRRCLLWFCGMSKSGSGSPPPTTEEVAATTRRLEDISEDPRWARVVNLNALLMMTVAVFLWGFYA
Protocol: Preparation of Mouse SGLT-2 Expressing Cells
Full-length mouse SGLT-2 cDNA was amplified from C57BL/6J mouse kidneys and introduced in the pcDNA3.1(+) expression vector (Invitrogen, Inc.) and propagated in Escherichia coli strain DH5α using LuriaBertani (LB) medium containing ampicillin. […] Stably transfected cells were selected using G418 antibiotic selection pressure.
Methyl-α-D-[U-^14C]Glucopyranoside Uptake Assay for SGLT-2
(§1) Cells expressing mSGLT-2 were seeded on 96-well tissue culture plates (Greiner, Inc.) in RPMI containing 10% FBS and 400 μg/mL G418 (0.8×10^5 cells per well in 200 μL medium) and incubated at 37° C. under 5% carbon dioxide for 24 h prior to the assay. Cells were washed twice with 200 μL of either sodium buffer (140 mM NaCl, 4.7 mM KCl, 2.2 mM CaCl2, 1.2 mM MgCl2, 10 mM Tris/Hepes, pH 7.4) or sodium-free buffer (137 mM N-methyl-glucamine, 4.7 mM KCl, 2.2 mM CaCl2, 1.2 mM MgCl2, 10 mM Tris/Hepes, pH 7.4). Reaction mixture containing test compounds at different concentrations diluted in assay buffer, 0.1 mM unlabeled Methyl-α-D-glucopyranoside and 1 μCi/well methyl-α-D-[U-^14C]glucopyranoside (American Radiochemicals) was added per well of a 96-well plate and incubated at 37° C. for 1 h. Cells were washed thrice with 200 μL of wash buffer (140 mM NaCl, 4.7 mM KCl, 2.2 mM CaCl2, 1.2 mM MgCl2, 10 mM Tris/Hepes, pH 7.4 containing 500 μM phlorizin) and lysed using 50 μL of 0.25N NaOH. Methyl-α-D-[U-^14C]glucopyranoside uptake was quantitated using a Top count scintillation counter (PerkinElmer, Inc.). All the test compounds were assayed in triplicates.

human SGLT-1 = molecular target: T2, human SGLT-1 (Homo sapiens, UniProt P13866); test: Methyl-α-D-[U-14C]glucopyranoside uptake assay for SGLT-1 in CHO-K1 cells; format: cell-based; conditions: CHO-K1 cells expressing hSGLT-1; for inhibition at 1 µM / inhibition at 10 µM / inhibition at 0.1 µM: read-out: % inhibition of Methyl-α-D-[U-^14C] Glucopyranoside uptake (CHO-K1 cells) mediated by SGLT-1
T2 construct: Full-length human SGLT-1 cDNA in the pCMV-XL-Neo expression vector was obtained from Origene Corporation; host or cells: CHO-K1 cells (American Type Culture Collection), stably transfected, G418-selected
T2 sequence (P13866 1-664): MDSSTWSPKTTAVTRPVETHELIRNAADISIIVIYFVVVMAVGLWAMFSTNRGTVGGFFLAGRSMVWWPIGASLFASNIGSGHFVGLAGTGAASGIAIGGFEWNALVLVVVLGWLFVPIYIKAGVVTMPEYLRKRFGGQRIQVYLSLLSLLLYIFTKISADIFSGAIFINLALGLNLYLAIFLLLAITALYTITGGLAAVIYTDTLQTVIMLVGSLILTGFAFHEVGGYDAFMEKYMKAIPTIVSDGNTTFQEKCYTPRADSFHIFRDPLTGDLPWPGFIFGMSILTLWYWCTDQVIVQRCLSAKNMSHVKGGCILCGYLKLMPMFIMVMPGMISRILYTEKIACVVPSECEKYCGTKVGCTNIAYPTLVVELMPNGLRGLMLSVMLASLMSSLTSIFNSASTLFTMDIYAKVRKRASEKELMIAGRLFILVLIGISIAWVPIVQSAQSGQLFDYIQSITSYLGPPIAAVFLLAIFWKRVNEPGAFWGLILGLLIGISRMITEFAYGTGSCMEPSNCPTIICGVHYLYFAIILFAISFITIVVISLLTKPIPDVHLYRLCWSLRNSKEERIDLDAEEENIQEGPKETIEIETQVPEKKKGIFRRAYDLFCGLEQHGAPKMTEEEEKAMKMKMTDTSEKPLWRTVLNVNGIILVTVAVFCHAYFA
Protocol: Preparation of Human SGLT-1 Expressing Cells
Full-length human SGLT-1 cDNA in the pCMV-XL-Neo expression vector was obtained from Origene Corporation and propagated in Escherichia coli strain DH5α using Luria-Bertani (LB) medium containing ampicillin. […] Stably transfected cells were selected using G418 antibiotic selection pressure.
Methyl-α-D-[U-^14C]Glucopyranoside Uptake Assay for SGLT-1
as §1, with “hSGLT-1” for “mSGLT-2”, “800 μg/ml” for “400 μg/mL”, “compounds” for “compounds at different concentrations”, “1” for “0.1”, “Methyl-α-D[U-^14C]glucopyranoside” for “Methyl-α-D-[U-^14C]glucopyranoside”

C57BL/6J mice = test: Estimation of urinary glucose in C57BL/6J mice; format: in vivo, mouse; conditions: urine collected over 24 h
Protocol: Estimation of Urinary Glucose in C57BL/6J Mice
C57BL/6J mice were fasted 4 h before drug treatment. Fasted mice were weighed and randomized into different groups based on their body weight (n=6). At time T0 test compounds and standard compounds suspended in 0.25% CMC or PEG 400 formulation, were administered to respective groups and kept in metabolic cages (6 mice/cage) after dosing. Animals were fed after drug administration and urine was collected over a period of 24 h. Urinary volume was measured and urinary glucose was estimated using Merckotest Glucose Reagent (Merck Specialties Pvt. Ltd., India).

SMILES | inhibition at 0.001 µM (mouse SGLT-2) [%] | inhibition at 0.01 µM (mouse SGLT-2) [%] | inhibition at 0.1 µM (mouse SGLT-2) [%] | % inhibition of Methyl-α-D-[U-^14C] Glucopyranoside uptake (CHO-K1 cells) mediated by SGLT-1 (human SGLT-1; 100 nM) | inhibition at 1 µM (human SGLT-1) [%] | inhibition at 10 µM (human SGLT-1) [%] | inhibition at 0.1 µM (human SGLT-1; 100 nM) [%] | UGE in mice (in mg/g of feed consumed) at 3 mpk (C57BL/6J mice)
CON=CCCOc1ccc(Cc2cc(C3O[C@H](OC)[C@@H](O)[C@H](O)[C@H]3O)ccc2Cl)cc1 (stereo partly shown) [Compound 29] | 40.2 | 37.9 | 77.2 | N.E. | 70 | 92.9 |  | 
CCON=CCOc1ccc(Cc2cc([C@]34OC[C@](CO)(O3)[C@@H](O)[C@H](O)[C@H]4O)ccc2Cl)cc1 [Compound 11] | < 0 | 20.1 | 50.8 |  | 53.7 | 68.2 | 25.7 | 56.1 mg/g of feed consumed
CON=C(C)COc1ccc(Cc2cc(C3O[C@H](OC)[C@@H](O)[C@H](O)[C@H]3O)ccc2Cl)cc1 (stereo partly shown) [Compound 30] | 35.6 | 37.3 | 54 |  | 26.4 | 77.9 | 24 | 
